# Source: PMC8148378 (Chemical Science, 2019)
# How the values were obtained:
# [1] = tested on: S. aureus ATCC29213; assay: MIC determination; format: cell-based; settings: Staphylococcus aureus, ATCC29213, read-out: MIC S. aureus, ATCC29213
# [2] = tested on: P. aeruginosa ΔmexAB (PA14ΔmexAB); assay: MIC determination; format: cell-based; settings: Pseudomonas aeruginosa, read-out: MIC P. aeruginosa ΔmexAB
# [3] = molecular target: T1, E. coli gyrase (Escherichia coli, UniProt P0AES4); assay: DNA gyrase supercoiling assay, method a; format: biochemical
# T1 sequence (P0AES4 whole entry): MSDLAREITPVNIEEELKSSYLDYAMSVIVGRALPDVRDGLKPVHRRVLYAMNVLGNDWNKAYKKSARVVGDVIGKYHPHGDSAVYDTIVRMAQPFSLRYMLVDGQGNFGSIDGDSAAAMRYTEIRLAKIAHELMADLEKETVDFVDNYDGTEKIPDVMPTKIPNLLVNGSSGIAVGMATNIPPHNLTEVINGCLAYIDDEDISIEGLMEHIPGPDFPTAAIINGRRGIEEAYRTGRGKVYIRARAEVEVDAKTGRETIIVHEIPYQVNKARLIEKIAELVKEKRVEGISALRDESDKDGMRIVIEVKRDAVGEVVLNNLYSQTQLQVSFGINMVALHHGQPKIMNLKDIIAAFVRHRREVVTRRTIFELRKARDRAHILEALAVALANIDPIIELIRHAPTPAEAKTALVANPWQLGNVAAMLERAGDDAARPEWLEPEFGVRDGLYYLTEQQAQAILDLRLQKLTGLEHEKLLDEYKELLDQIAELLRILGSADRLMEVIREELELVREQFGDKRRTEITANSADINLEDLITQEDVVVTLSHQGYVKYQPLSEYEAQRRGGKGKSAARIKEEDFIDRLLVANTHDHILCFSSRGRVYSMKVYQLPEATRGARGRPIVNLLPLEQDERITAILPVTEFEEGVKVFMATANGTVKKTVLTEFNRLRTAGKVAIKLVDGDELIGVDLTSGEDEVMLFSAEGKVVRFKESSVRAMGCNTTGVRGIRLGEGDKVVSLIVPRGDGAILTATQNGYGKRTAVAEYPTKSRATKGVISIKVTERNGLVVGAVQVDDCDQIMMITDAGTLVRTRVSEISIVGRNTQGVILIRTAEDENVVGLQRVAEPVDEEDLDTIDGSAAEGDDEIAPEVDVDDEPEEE
# [4] = tested on: E. coli ΔtolC; assay: MIC determination; format: cell-based; settings: Escherichia coli, read-out: MIC E. coli ΔtolC
# [5] = tested on: P. aeruginosa WT PA14; assay: MIC determination; format: cell-based, Pseudomonas aeruginosa; settings: for MIC: Pseudomonas aeruginosa, PA14, read-out: MIC P. aeruginosa WT, PA14
# [6] = tested on: E. coli WT DSM-1116; assay: MIC determination; format: cell-based; settings: Escherichia coli, DSM1116, read-out: MIC E. coli WT, DSM-1116
# [7] = format: physicochemical
# [8] = molecular target: T1, E. coli gyrase; assay: DNA gyrase supercoiling assay, method b; format: biochemical; settings: for fold decrease of gyrase inhibition: compared to 22
# [9] = tested on: E. coli WT-3; assay: MIC determination, larger panel; format: cell-based; settings: Escherichia coli, WT3, read-out: MIC E. coli WT-3
# [10] = tested on: S. marcescens DSM-30121; assay: MIC determination, larger panel; format: cell-based; settings: Serratia marcescens, DSM30121, read-out: MIC S. marcescens
# [11] = tested on: E. cloacae DSM-30054; assay: MIC determination, larger panel; format: cell-based; settings: Enterobacter cloacae, DSM30054, read-out: MIC E. cloacae
# [12] = tested on: P. mirabilis DSM-4479; assay: MIC determination, larger panel; format: cell-based; settings: Proteus mirabilis, DSM4479, read-out: MIC P. mirabilis
# [13] = tested on: K. pneumoniae DSM-30104; assay: MIC determination, larger panel; format: cell-based; settings: Klebsiella pneumoniae, DSM30104, read-out: MIC K. pneumoniae
# [14] = tested on: P. aeruginosa ESBL 1 DSM-24600; assay: MIC determination, larger panel; format: cell-based; settings: Pseudomonas aeruginosa, DSM24600, read-out: MIC P. aeruginosa ESBL 1
# [15] = tested on: E. aerogenes DSM-30053; assay: MIC determination, larger panel; format: cell-based, Enterobacter aerogenes; settings: Klebsiella aerogenes, DSM30053, read-out: MIC E. aerogenes
# [16] = tested on: P. aeruginosa ESBL 2 DSM-46316; assay: MIC determination, larger panel; format: cell-based; settings: Pseudomonas aeruginosa, DSM46316, read-out: MIC P. aeruginosa ESBL 2
# [17] = tested on: A. baumannii DSM-30008; assay: MIC determination, larger panel; format: cell-based; settings: Acinetobacter baumannii, DSM30008, read-out: MIC A. baumannii, DSM-30008
# [18] = tested on: P. dispersa; assay: MIC against the AlbD producer; format: cell-based; settings: Pantoea dispersa, read-out: MIC P. dispersa
# [19] = tested on: E. faecalis ATCC-29212; assay: MIC determination, larger panel; format: cell-based; settings: Enterococcus faecalis, ATCC29212, read-out: MIC E. faecalis
Structure (SMILES),MIC [1],MIC [2],MIC [4],MIC [5],MIC [6],MIC [9],further results
CC(C)Oc1c(NC(=O)c2ccc(NC(=O)[C@H](CC(N)=O)NC(=O)c3ccc(NC(=O)c4ccc([N+](=O)[O-])cc4)cc3)cc2)ccc(C(=O)Nc2ccc(C(=O)O)cc2)c1O [Compound 4],1 µg/mL,1 µg/mL,0.125 µg/mL,> 64 µg/mL,1 µg/mL,–,IC50 [3]: 110 nM; MIC P. aeruginosa WT ([5]; PA14): >64 µg/mL; pKa [7]: < 8
CC(C)Oc1c(NC(=O)c2ccc(NC(=O)[C@H](CC(N)=O)NC(=O)c3ccc(NC(=O)c4ccccc4)cc3)cc2)ccc(C(=O)Nc2ccc(C(=O)O)cc2)c1O [Compound 15],–,–,–,–,> 64 µg/mL,–,–
CC(C)Oc1c(NC(=O)c2ccc(NC(=O)[C@H](CC(N)=O)NC(=O)c3ccc(NC(=O)c4ccc(C(F)(F)F)cc4)cc3)cc2)ccc(C(=O)Nc2ccc(C(=O)O)cc2)c1O [Compound 23],16 to 32 µg/mL,–,–,–,–,–,–
CC(C)Oc1c(NC(=O)c2ccc(NC(=O)[C@H](CC(N)=O)NC(=O)c3ccc(NC(=O)c4ccc(NC(=O)c5ccc([N+](=O)[O-])cc5)cc4)cc3)cc2)ccc(C(=O)Nc2ccc(C(=O)O)cc2)c1O [Compound 24],–,–,–,–,–,–,fold reduced inhibitory activity in the gyrase assay ([8]; compared to 4): 20 fold
CC(C)Oc1c(NC(=O)c2ccc(NC(=O)[C@H](CC(N)=O)NC(=O)c3ccc(NC(=O)c4ccc(C#N)cn4)cc3)cc2)ccc(C(=O)Nc2ccc(C(=O)O)cc2)c1O [Compound 31],–,–,–,–,–,2 µg/mL,–
CC(C)Oc1c(NC(=O)c2ccc(NC(=O)[C@H](CC(N)=O)NC(=O)c3ccc(NC(=O)c4ccc(C#N)s4)cc3)cc2)ccc(C(=O)Nc2ccc(C(=O)O)cc2)c1O [Compound 32],–,–,–,–,–,1 µg/mL,MIC [10]: > 64 µg/mL; MIC [11]: > 64 µg/mL; MIC [12]: > 64 µg/mL; MIC [13]: > 64 µg/mL
C/C(=C\c1ccc(O)cc1)C(=O)Nc1ccc(C(=O)N[C@@H](CC(N)=O)C(=O)Nc2ccc(C(=O)Nc3ccc(C(=O)Nc4ccc(C(=O)O)cc4)c(O)c3OC(C)C)cc2)cc1 [Compound 45],–,–,–,–,–,0.125 µg/mL,MIC [10]: 64 µg/mL; MIC [14]: > 64 µg/mL; MIC [11]: > 64 µg/mL; MIC [12]: 2 µg/mL; MIC [15]: 1 µg/mL; MIC [16]: 2 µg/mL; MIC [13]: > 64 µg/mL
C/C(=C\c1ccc(C#N)cc1)C(=O)Nc1ccc(C(=O)N[C@@H](CC(N)=O)C(=O)Nc2ccc(C(=O)Nc3ccc(C(=O)Nc4ccc(C(=O)O)cc4)c(O)c3OC(C)C)cc2)cc1 [Compound 46],–,–,–,–,–,0.125 µg/mL,MIC [17]: 0.06 µg/mL
CC(C)Oc1cc(C(=O)Nc2ccc(C(=O)O)cc2)ccc1NC(=O)c1ccc(NC(=O)[C@H](CC(N)=O)NC(=O)c2ccc(NC(=O)c3ccc([N+](=O)[O-])cc3)cc2)cc1 [Compound 52],> 64 µg/mL,1 µg/mL,0.06 µg/mL,> 64 µg/mL,> 64 µg/mL,–,–
CC(C)COc1c(NC(=O)c2ccc(NC(=O)[C@H](CC(N)=O)NC(=O)c3ccc(NC(=O)c4ccc([N+](=O)[O-])cc4)cc3)cc2)ccc(C(=O)Nc2ccc(C(=O)O)cc2)c1O [Compound 53],1 µg/mL,> 64 µg/mL,2 µg/mL,> 64 µg/mL,> 64 µg/mL,–,–
Cn1cc(NC(=O)C(CC(N)=O)NC(=O)c2ccc(NC(=O)c3ccc(C#N)cc3)cc2)cc1-c1nc2ccc(C(=O)Nc3ccc(C(=O)O)cc3)c(O)c2[nH]1 (centres unmarked) [Compound 56],–,–,–,–,–,–,IC50 [3]: 10900 nM; fold decrease of gyrase inhibition [8]: approximately 100 fold
CC(C)Oc1c(-n2cc(-c3ccc(NC(=O)C(CC(N)=O)NC(=O)c4ccc(NC(=O)c5ccc(C#N)cc5)cc4)cc3)nn2)ccc(C(=O)Nc2ccc(C(=O)O)cc2)c1O (centres unmarked) [Compound 61],–,–,–,–,–,16 µg/mL,MIC [10]: > 64 µg/mL; MIC [14]: 16 µg/mL; MIC [11]: > 64 µg/mL; MIC [12]: 16 µg/mL; MIC [15]: 1 µg/mL; MIC [16]: 16 µg/mL; fold decrease of gyrase inhibition [8]: ca. 20 fold; MIC [13]: > 64 µg/mL; MIC [17]: 8 µg/mL; MIC [18]: 1 µg/mL; MIC [19]: 16 µg/mL
CC(C)Oc1c(NC(=O)c2ccc(NC(=O)[C@H](CC(N)=O)NC(=O)c3ccc(NC(=O)c4ccc(C#N)cc4)cc3)cc2)ccc(C(=O)O)c1O [Compound 67],–,–,–,–,–,–,fold decrease of gyrase inhibition [8]: more than 100 fold
CC(C)Oc1c(NC(=O)c2ccc(NC(=O)c3ccc(NC(=O)[C@H](CC(N)=O)NC(=O)c4ccc(NC(=O)c5ccc([N+](=O)[O-])cc5)cc4)cc3)c(OC(C)C)c2O)ccc(C(=O)O)c1O [Compound 78],0.05 µg/mL,1 µg/mL,0.125 µg/mL,> 64 µg/mL,0.5 µg/mL,–,IC50 [8]: 200 nM
CC(C)Oc1c(NC(=O)c2ccc(NC(=O)c3ccc(NC(=O)[C@H](CC(N)=O)NC(=O)c4ccc(NC(=O)c5ccc(C#N)cc5)cc4)cc3)c(OC(C)C)c2O)ccc(C(=O)O)c1O [Compound 79],≤ 0.03 µg/mL,1 µg/mL,≤ 0.03 µg/mL,2 µg/mL,0.25 µg/mL,–,IC50 [8]: 600 nM
CC(C)Oc1c(NC(=O)c2ccc(NC(=O)c3ccc(NC(=O)[C@H](CC(N)=O)NC(=O)c4ccc(NC(=O)c5ccc(C#N)cn5)cc4)cc3)c(OC(C)C)c2O)ccc(C(=O)O)c1O [Compound 80],≤ 0.03 µg/mL,0.5 µg/mL,≤ 0.03 µg/mL,> 64 µg/mL,0.06 µg/mL,0.5 µg/mL,MIC [10]: > 64 µg/mL; MIC [14]: > 64 µg/mL; MIC [11]: > 64 µg/mL; MIC [15]: 1 µg/mL; MIC [16]: > 64 µg/mL; MIC [17]: 0.25 µg/mL; MIC [19]: ≤ 0.03 µg/mL
CC(C)Oc1c(NC(=O)c2ccc(NC(=O)c3ccc(NC(=O)[C@H](CC(N)=O)NC(=O)c4ccc(NC(=O)c5ccc(C#N)s5)cc4)cc3)c(OC(C)C)c2O)ccc(C(=O)O)c1O [Compound 81],0.06 µg/mL,2 µg/mL,0.06 µg/mL,> 64 µg/mL,0.125 µg/mL,0.5 µg/mL,MIC [10]: > 64 µg/mL; MIC [14]: > 64 µg/mL; MIC [11]: > 64 µg/mL; MIC [12]: > 64 µg/mL; MIC [15]: 1 µg/mL; MIC [16]: > 64 µg/mL; MIC [13]: 1 µg/mL; MIC [17]: 1 µg/mL; MIC [19]: ≤ 0.03 µg/mL
C/C(=C\c1ccc(C#N)cc1)C(=O)Nc1ccc(C(=O)N[C@@H](CC(N)=O)C(=O)Nc2ccc(C(=O)Nc3ccc(C(=O)Nc4ccc(C(=O)O)c(O)c4OC(C)C)c(O)c3OC(C)C)cc2)cc1 [Compound 82],0.06 µg/mL,0.25 µg/mL,≤ 0.03 µg/mL,1 µg/mL,0.125 µg/mL,–,IC50 [8]: 200 nM
COC(=O)c1ccc(NC(=O)c2ccc(NC(=O)c3ccc(NC(=O)[C@H](CC(N)=O)NC(=O)c4ccc(NC(=O)c5ccc([N+](=O)[O-])cc5)cc4)cc3)c(OC(C)C)c2)cc1 [Compound 129],> 64 µg/mL,> 64 µg/mL,> 64 µg/mL,> 64 µg/mL,> 64 µg/mL,–,–
"O=C(O)c1cn(C2CC2)c2cc(N3CCNCC3)c(F)cc2c1=O [ciprofloxacin, reference compound]",–,–,–,–,–,–,MIC [14]: 8 µg/mL; MIC [12]: 0.06 µg/mL; MIC [17]: 0.32 µg/mL; MIC [19]: 1 µg/mL
